Data as given in patent publication US12319912B2, “MicroRNA expression promoting agent and food or beverage for promoting expression of microRNA” (Kewpie Corporation, priority 2019, dated 2025).

How the values were obtained:
Assay type in all cases: in vivo, nude mice (BALB/c-nu/nu)
Conditions in all cases: 0.25% (w/w) pterostilbene in feed, MM-231-luc-D3H2LN tumors removed at 21 days, female nude mice
[1] = tested on: miR-200c; assay: Expression level of miR-200c in removed tumors after oral administration of pterostilbene-containing feed (quantitative RT-PCR)
Protocol: (§1) An animal feed for test (pterostilbene-containing powdery animal feed) was prepared by the following method. That is, first, 50 g of corn oil was weighed and heated to 70° C. Pterostilbene was added to the heated corn oil and was dissolved therein. Reagents other than corn oil and pterostilbene (other reagents) were ground in a mortar, and the mixture was mixed. The corn oil in which pterostilbene was dissolved was added to the mixture of other reagents, and the mixture was mixed by sufficiently grinding in a mortar. Subsequently, the mixture was further mixed with a stirrer for about 30 minutes, and thus an animal feed for test was prepared. […]
(§2) At a time point where one week had passed after grouping, the mice in each group were subjected to a cancer cell transplantation experiment. […] Confirmation of whether the cancer cells were transplanted was achieved by leaving the animals for a while after transplantation, intraperitoneally administering a 15 mg/ml luciferin solution (Beetle Luciferin, Potassium Salt, Promega Corporation) in an amount of 150 mg/kg, and measuring cell-derived luminescence (luciferase activity) with IVIS Spectrum (PerkinElmer, Inc.) after about 10 minutes. […] The body weights of the mice were measured in a timely manner. […] Then, luminescence was observed over time with IVIS spectrum every other week from the day of administration initiation. […]

[2] = tested on: miR-141; assay: Expression level of miR-141 in removed tumors after oral administration of pterostilbene-containing feed (quantitative RT-PCR)
Protocol: as §1, §2

[3] = tested on: miR-34a; assay: Expression level of miR-34a in removed tumors after oral administration of pterostilbene-containing feed (quantitative RT-PCR)
Protocol: as §1, §2

[4] = tested on: miR-16; assay: Expression level of miR-16 in removed tumors after oral administration of pterostilbene-containing feed (quantitative RT-PCR)
Protocol: as §1, §2

[5] = tested on: miR-126; assay: Expression level of miR-126 in removed tumors after oral administration of pterostilbene-containing feed (quantitative RT-PCR)
Protocol: as §1, §2

[6] = tested on: miR-193b; assay: Expression level of miR-193b in removed tumors after oral administration of pterostilbene-containing feed (quantitative RT-PCR)
Protocol: as §1, §2

[7] = tested on: let-7a; assay: Expression level of let-7a in removed tumors after oral administration of pterostilbene-containing feed (quantitative RT-PCR)
Protocol: as §1, §2

COc1cc(/C=C/c2ccc(O)cc2)cc(OC)c1 [pterostilbene, Pterostilbene]
promoted: expression of miR-200c as compared to the control group [1] | expression of miR-141 as compared to the control group [2] | expression of miR-34a as compared to the control group [3] | expression of miR-16 as compared to the control group [4] | expression of miR-126 as compared to the control group [5] | expression of miR-193b as compared to the control group [6] | expression of let-7a as compared to the control group [7]
